The values below come from ChEMBL document CHEMBL3352247, “Synthesis and antimycobacterial evaluation of 5-alkylamino-N-phenylpyrazine-2-carboxamides” (Bioorg Med Chem, 2015).

Broadly, the MIC is the least concentration at which growth counts as inhibited.

Calls of active or inactive are those of the source. The rule behind the calls is not given here.

Assay [1] has as its system Lichtheimia corymbifera. The assay can be described thus: Antifungal activity against Absidia corymbifera 272 after 24 to 48 hrs by two-fold dilution method. In kind it is functional, organism-based.
Assay [2] relates to Klebsiella pneumoniae. The assay can be described thus: Antibacterial activity against Klebsiella pneumoniae D 11750/08 clinical isolate after 24 to 48 hrs by broth microdilution method. In kind it is functional, organism-based. On the technique in general: In broth dilution the organism is exposed to a series of concentrations in liquid medium.
In assay [3] the test system is Candida albicans. Put plainly: Antifungal activity against Candida albicans ATCC 44859 after 24 to 48 hrs by two-fold dilution method. In kind it is functional, organism-based.
The test system of assay [4] is Nakaseomyces glabratus. Put plainly: Antifungal activity against Candida glabrata 20/I after 24 to 48 hrs by two-fold dilution method. The assay is classed as functional, organism-based.
Assay [5] concerns Staphylococcus aureus. Put plainly: Antibacterial activity against Staphylococcus aureus CCM 4516/08 after 24 to 48 hrs by broth microdilution method. In kind it is functional, organism-based.
Assay [6] relates to Mycobacterium kansasii. Put plainly: Antimycobacterial activity against Mycobacterium kansasii CNCTC My 235/80 after 5 to 7 days by AlamarBlue assay. The assay is classed as functional. (The colour change of resazurin is a common sign of viable cells or microbes.)
The subject of assay [7] is Pseudomonas aeruginosa. The assay can be described thus: Antibacterial activity against Pseudomonas aeruginosa CCM 1961 after 24 to 48 hrs by broth microdilution method. In kind it is functional, organism-based.
Assay [8] has as its system Trichosporon asahii. Put plainly: Antifungal activity against Trichosporon asahii 1188 after 24 to 48 hrs by two-fold dilution method. In kind it is functional, organism-based.
Assay [9] relates to Enterococcus sp. Put plainly: Antibacterial activity against Enterococcus sp. after 24 to 48 hrs by broth microdilution method. In kind it is functional.
For assay [10], the system named is Pichia kudriavzevii. The assay can be described thus: Antifungal activity against Candida krusei E28 after 24 to 48 hrs by two-fold dilution method. The assay is classed as functional, organism-based.
Assay [11] has as its system Trichophyton mentagrophytes. The assay can be described thus: Antifungal activity against Trichophyton mentagrophytes 445 after 72 to 120 hrs by two-fold dilution method. The assay is classed as functional, organism-based.
Assay [12] in a line: Antimycobacterial activity against Mycobacterium avium subsp. avium Chester CNCTC My 80/72 after 5 days by AlamarBlue assay. The assay is classed as functional. The following applies: Chester CNCTC My 80/72, 120 h.
Assay [13] relates to Candida tropicalis. The assay can be described thus: Antifungal activity against Candida tropicalis 156 after 24 to 48 hrs by two-fold dilution method. In kind it is functional, organism-based.
Assay [14] deals with Aspergillus fumigatus. Put plainly: Antifungal activity against Aspergillus fumigatus 231 after 24 to 48 hrs by two-fold dilution method. The assay is classed as functional, organism-based.
In assay [15] the test system is Klebsiella pneumoniae. Put plainly: Antibacterial activity against ESBL-positive Klebsiella pneumoniae J 14368/08 clinical isolate after 24 to 48 hrs by broth microdilution method. The assay is classed as functional, organism-based.
Assay [16] deals with Enterococcus sp. The assay can be described thus: Antibacterial activity against Enterococcus sp. J 14365/08 clinical isolate after 24 to 48 hrs by broth microdilution method. In kind it is functional, organism-based.
Assay [17] relates to Staphylococcus epidermidis. The assay can be described thus: Antibacterial activity against Staphylococcus epidermidis H 6966/08 clinical isolate after 24 to 48 hrs by broth microdilution method. The assay is classed as functional, organism-based.
For assay [18], the system named is Mycobacterium tuberculosis. The assay can be described thus: Antimycobacterial activity against Mycobacterium tuberculosis H37Rv CNCTC My 331/88 after 10 to 14 days by AlamarBlue assay. The assay is classed as functional.
In assay [19] the test system is Escherichia coli. Put plainly: Antibacterial activity against Escherichia coli CCM 4517 after 24 to 48 hrs by broth microdilution method. The assay is classed as functional, organism-based.
In assay [20] the test system is Staphylococcus aureus. Put plainly: Antibacterial activity against methicillin-resistant Staphylococcus aureus H 5996/08 clinical isolate after 24 to 48 hrs by broth microdilution method. In kind it is functional, organism-based.

Consider `CCCCCNc1cnc(C(=O)Nc2ccccc2)cn1`, for which the outcome in assay [1], in assay [2], in assay [3], in assay [4], in [5] and in assay [7] was inactive. Besides, the result in [8], in assay [10], in assay [11], in assay [13], in [14] and in assay [15] was inactive. In addition, the outcome in [16], in [17], in assay [19] and in assay [20] was inactive. The values for the MIC in assay [6], in [12] and in [18] were 11 µM, greater than 100 µg/mL and 11 µM, respectively. In addition, the outcome in [9] was Active.

Take `CCCNc1cnc(C(=O)Nc2ccccc2Cl)cn1`: the outcome in assay [1], in [2], in [3], in [4], in assay [5] and in assay [7] was inactive. Further, the outcome in [8], in assay [10], in [11], in assay [13], in assay [14] and in assay [15] was inactive. Also, the outcome in assay [16], in [17], in assay [19] and in assay [20] was inactive. Besides, the MIC in assay [6], in assay [12] and in assay [18] was greater than 100 µg/mL throughout. Moreover, the outcome in [9] was Active.

`CCCCCCNc1cnc(C(=O)Nc2ccccc2)cn1`: the outcome in [1], in assay [2], in assay [3], in [4], in assay [5] and in assay [7] was inactive. Also, the outcome in assay [8], in assay [10], in assay [11], in assay [13], in assay [14] and in assay [15] was inactive. The result in [16], in assay [17], in assay [19] and in assay [20] was inactive. Besides, the results for the MIC in assay [6], in [12] and in assay [18] were 2.6 µM, greater than 100 µg/mL and 2.6 µM, respectively. In addition, the result in [9] was Active.
